According to patent US4343807A, “Derivatives of clavulanic acid, a process for their preparation and their use” (Beecham Group Limited, priority 1979, dated 1982):
Converted amounts (≈) assume the structure as drawn.

Experiments:
Format in all cases: cell-based
[1] = test system: Kleb Aergenes E70; assay: MIC by standard microtitre technique (dilution in tryptone soy broth); conditions: Klebsiella aerogenes, substance alone
Experimental: (§1) By a standard microtitre technique the MIC values for ampicillin alone, ampicillin and 9-N-(2-N-morpholinoethyl)aminodeoxyclavulanic acid and 9-N-(2-N-morpholinoethyl)aminodeoxyclavulanic acid alone were determined.
(§2) MIC μg/ml (dilution in tryptone soy broth)
(§3) By a standard microtitre technique the MIC values for ampicillin alone, ampicillin and 9-N-[3'-N-(2"-pyrrolidinoyl)propyl]aminodeoxyclavulanic acid and 9-N[3'-N-(2"-pyrrolidinoyl)propyl]aminodeoxyclavulanic acid alone were determined.

[2] = test system: E. Coli JT39; assay: as above; conditions: Escherichia coli, substance alone
Experimental: as §1, §2, §3

[3] = test system: Staph. Aureus Russell; assay: as above; conditions: Staphylococcus aureus, substance alone
Experimental: as §1, §2, §3

[4] = test system: Strep. pyogenes; assay: Antibacterial activity, MIC (dilution in blood agar-heavy inoculum); conditions: Streptococcus pyogenes
Excerpt: (§4) Antibacterial activity of 9-N-[3'-N-(2"-pyrrolidinonyl)propyl]aminodeoxyclavulanic acid
(§5) Dilution in blood agar-heavy inoculum

[5] = test system: Strep. pneumoniae; assay: as above; conditions: Streptococcus pneumoniae
Excerpt: as §4, §5

[6] = test system: Staph. Aureus Russell; assay: as above; conditions: Staphylococcus aureus
Excerpt: as §4, §5

[7] = test system: Staph. aureus Oxford; assay: as above; conditions: Staphylococcus aureus
Excerpt: as §4, §5

Row | SMILES | MIC [1] [µg/mL] | MIC [2] [µg/mL] | MIC [3] [µg/mL] | MIC [4] [µg/mL] | MIC [5] [µg/mL] | MIC [6] [µg/mL] | MIC [7] [µg/mL]
1 | CC1(C)S[C@@H]2[C@H](NC(=O)[C@H](N)c3ccccc3)C(=O)N2[C@H]1C(=O)O [Ampicillin, reference compound] | 1000 (≈ 2860 µM) | > 2000 | 1000 (≈ 2860 µM) |  |  |  | 
2 | O=C(O)[C@H]1/C(=C/CNCCCN2CCCC2=O)O[C@@H]2CC(=O)N21 [Example 2, 9-N[3'-N-(2"-Pyrrolidinonyl)propyl]aminodeoxyclavulanic acid] | 500 (≈ 1550 µM) | 62 (≈ 192 µM) | 16 (≈ 49.5 µM) | 1.25 (≈ 3.87 µM) | 5 (≈ 15.5 µM) | 5 (≈ 15.5 µM) | 5 (≈ 15.5 µM)
3 | O=C(O)[C@H]1/C(=C/CNCCN2CCOCC2)O[C@@H]2CC(=O)N21 [Example 1, 9-N-(2'-N-Morpholinoethyl)aminodeoxyclavulanic acid] | 500 (≈ 1610 µM) | 62 (≈ 199 µM) | 16 (≈ 51.4 µM) |  |  |  | 
